Here are results for two substances from patent US20240409582A1, “DESIGN AND CHARACTERIZATION OF INHIBITORY PEPTIDES (IPEPS) DERIVED FROM OF MIEN 1 PROTEIN SEQUENCE” (priority 2022, published 2024).

Experiment [1] has as its system MDA-MB-231 orthotopic tumors. Description: Orthotopic breast cancer model in athymic nude mice. Type of experiment: in vivo. To be noted: for tumor growth: 30 mg/kg peritumoral every alternate day, 30 days; for decrease of tumor volume: 30 mg/kg peritumoral on alternate days, vs control. On the procedure:
Orthotropic Breast Cancer Models in Mice: All in vivo experiments were conducted on 6-8-week-old athymic nude mice (Charles River). MDA-M13-231 (1.5×10^6) cells were suspended in 50% Matrigel in DMEM high glucose (vol/vol) on ice for mammary fat pad injection. The control group received the same volume of matrigel (Corning Cat #356234) and media but no cells. […] Tumor volume was measured using a digital Vernier caliper on alternate days. The tumor volumes (mm3) were calculated using the following formula V=(W2×L)/2 (V, tumor volume: W, tumor width; L, tumor length). Mice were euthanized when rumors in the control group reached˜10% of body weight. At the end of the experiment, all animals were weighed, euthanized, and liver, lung, spleen, kidney brain, and tumors were harvested. The weights of tumors and organs were recorded.

Experiment [2] has as its system MDA-MB-231 cells. Description: RNA-seq transcriptome of MDA-MB-231 cells after peptide treatment. To be noted: MDA-MB-231, RNA-seq. Type of experiment: cell-based, human. As for the experimental part:
RNeasy Mini Kit (Cat #74106, Qiagen,) was used for RNA isolation and all procedures were performed according to the manufacturer's specification. The purification included 15 minutes of in-column DNase I (Cat #79254, Qiagen,) treatment. […] The quality was controlled using Agilent Tapestation and Qubit 4 fluorometer. Sequencing was on an illumina NextSeq 550 system as per the recommended protocol. Raw sequencing files were adapter trimmed and quality filtered using fastp. The reads were mapped to hg38 reference genome using Hisat2. Differential gene expression analysis was performed using Deseq2.

Experiment [3] relates to MDA-MB-231 cells. Description: Wound healing assay. The format is cell-based, human. To be noted: MDA-MB-231, dose-dependent, sub-IC50 concentrations, 18 h. As for the experimental part: Wound healing assay: The wound-healing assay on highly metastatic MDA-MB-231 cells was performed to check the anti-migratory activity of the peptides. MDA-MB-231 cells were plated in a six-well tissue culture plate to form a sub-confluent cell monolayer. The monolayer was scraped with a sterile 200 μL pipette tip in the middle of the culture well to produce equal-sized wounds. Cell debris was removed and the scratched cell monolayer was supplemented with fresh media containing sub-IC 50 concentrations of MIEN1-derived peptide and its analogs. Wound areas were measured by ImageJ software after 18 h and were compared to control.

The subject of experiment [4] is phosphorylated cofilin (inactive cofilin). Description: Western blot, phosphorylated cofilin. To be noted: whole cell lysates of MDA-MB-231 and DU-145 cells, 48 h. Type of experiment: cell-based, human. On the procedure: (§1) Western blot analysis: MDA-MB-231 cells and DU-145 cells were treated with all the test peptides for 48 h. Cell lysates were prepared, and cellular protein was extracted using RIPA lysis buffer (Millipore). […] After blocking with 5% bovine serum albumin, the membrane was incubated with the primary antibodies specific for various proteins at 4° C. overnight. After primary antibody incubation, membrane was washed thrice in TBS containing 0.1% Tween-20 for 5 min each and then incubated with appropriate HRP-conjugated secondary antibody. The immunoreactive protein bands were visualized by enhanced chemiluminescence (ECL) on Alpha Innotech chemiluminescent detection system.
A general note: Immunoblotting shows a protein as a band on a membrane.

Experiment [5] deals with EMT genes (E-cadherin, N-Cadherin, SLUG, SNAIL, MMP-9, Zeb-1) in DU-145 prostate cancer cells. Description: RT-qPCR of EMT genes in DU-145 cells. Type of experiment: cell-based, human. The conditions noted are these: DU-145, qPCR. On the procedure: RT-qPCR Method: The changes in the mRNA levels of various genes in response to the peptide treatment in DU-145 cells were examined. Briefly, total RNA was purified using the TRIzol reagent (Invitrogen) according to the manufacturer's instructions. 1 μg of total RNA was reverse transcribed into cDNA using the Superscript-III First-Strand Synthesis kit (Invitrogen) following the manufacturer's protocol. RT-qPCR was performed with the SYBR Green Master Mix (Invitrogen) in a Realplex2 Mastercycler ep gradient S thermal cycler (Eppendorf). The PCR program followed for all the primers was an activation at 95° C. for 15 min, followed by 40 cycles of 95° C. for 30 sec, 54° C. for 1 min, and 72° C. for 45 sec. The reaction was finally put to hold at 4 C. The primers were synthesized by Integrated DNA Technologies (Coralville, IA and are described in Table 2. 18S was used as the reference genes for the mRNA levels. Fold-expression was calculated according to the ΔΔCt method.
(In general: Quantitative PCR measures a nucleic acid by following its amplification.)

The subject of experiment [6] is MDA-MB-231 cells. Description: Transwell invasion assay. The format is cell-based, human. The conditions noted are these: MDA-MB-231, dose-dependent. As for the experimental part:
Transwell Invasion Assay: The capacity of human breast cancer MDA-MB-231 cells to pass through a polyethylene terephthalate membrane (6.4 mm diameter; 8 µm pore size) was measured using transwell chambers (Corning Life Sciences) in 24-well tissue culture plates. The MDA-MB-231 were pre-treated with the increasing concentrations of each peptide for 24 h in a 0.1% FBS containing DMEM media. Next day, cells were dislodged by trypsin and 40,000 cells/well were resuspended in a serum-free DMEM containing the second treatment of peptides and were added to the upper chamber, and 10% FBS containing media was added to the bottom chambers. After incubation for another 24 h, non-invasive cells on the upper surface of the membrane were carefully removed with a cotton swab; cells were fixed in 4% paraformaldehyde solution (Affymetrix USB) for 15 minutes followed by a PBS wash; the membrane insert was then fixed with ice-cold methanol for 20 minutes followed by staining with 0.25% crystal violet. The numbers of invaded cells were counted in random fields in Image J, and results were expressed as an average number of invaded cells compared with control.

Experiment [7] deals with focal adhesion kinase (FAK) phosphorylation at tyrosine 925. Description: Western blot, phosphorylation of FAK. The format is cell-based, human. To be noted: MDA-MB-231 cell lysates, 48 h. On the procedure:
as §1

For experiment [8], the system named is phosphorylation of src at tyrosine 416. Description: Western blot, phosphorylation of src. The format is cell-based, human. To be noted: MDA-MB-231, 48 h. As for the experimental part:
as §1

Entries after “also recorded” stand apart in the source; their conditions may differ.

LAIAVK [LA3IK]: in experiment [1], the tumor growth entry is listed as “decreased tumor growth significantly” and the “decrease of tumor volume” value was 75.39%. Besides, the “response as per RECIST” value in experiment [1] (30 mg/kg, human tumor equivalent) is reported as “partial response”. The “changes in the transcriptome” value in the experiment on MDA-MB-231 cells [2] was “inhibited genes responsible for migration and cancer progression”. Further, the “number of migrated cells in the wound healing assay” value in the experiment with MDA-MB-231 cells [3] is listed as “significantly reduced number of migrated cells”. The phosphorylated cofilin entry in experiment [4] is given as “accumulation of phosphorylated cofilin”. In experiment [5], the “gene expression of SLUG, SNAIL, MMP 9, N-Cadherin and Zeb-1” value is on record as “significant decrease”; the “gene expression of epithelial marker E-Cadherin” value is “concomitant increase”. In addition, the “number of invaded cells” value with MDA-MB-231 cells [6] was “considerable decrease in the number of invaded cells”. Further, the “phosphorylation of FAK at tyrosine 925” value in experiment [7] is “inhibited”. Moreover, the “phosphorylation of FAK at tyrosine 925” value in experiment [7] (listed as LA31K) is on record as “marked inhibition”. In addition, in experiment [8], the “phosphorylation of src at tyrosine 416” value is on record as “inhibited”. The “phosphorylation of src at tyrosine 416” value in experiment [8] (listed as LA31K) is given as “marked inhibition”.

Turning to RPPCVIL [RP-7], in experiment [1], the tumor growth result is “decreased tumor growth significantly” and the “decrease of tumor volume” value is 37.43%. Also, the “number of migrated cells in the wound healing assay” value with MDA-MB-231 cells [3] is “significantly reduced number of migrated cells”. For the same substance, the phosphorylated cofilin entry in experiment [4] is listed as “accumulation of phosphorylated cofilin”. Also, in experiment [5], the “gene expression of SLUG, SNAIL, MMP 9, N-Cadherin and Zeb-1” value was “significant decrease”; the “gene expression of epithelial marker E-Cadherin” value was “concomitant increase”. The “number of invaded cells” value in the experiment on MDA-MB-231 cells [6] is recorded as “considerable decrease in the number of invaded cells”. For the same substance, the “phosphorylation of FAK at tyrosine 925” value in experiment [7] is on record as “inhibited; also recorded: marked inhibition”. Moreover, in experiment [8], the “phosphorylation of src at tyrosine 416” value is listed as “inhibited; also recorded: marked inhibition”.
